Earlier results, collected in US20150284900A1, “Novel Activator for Hydrogen Peroxide and Its Application” (priority 2014, published 2015).

Settings: in water; room temperature (20° C.)

- ionization constant: 1.78×10^−12
SMILES: OO [Activator H2O2, Hydrogen peroxide]
